From patent publication US9056091B1, “Composition for regulation of liver X receptor” (National Taiwan University, priority 2014, dated 2015)

How the values were obtained:
hLXRα = target: T1, hLXRα (Homo sapiens, UniProt Q13133); test: LXRα transactivation activity, GAL4-hLXRα LBD / (UAS)4-alkaline phosphatase reporter, transient transfection in CHO-K1 cells; assay type: cell-based; set-up: key to Enhancing effect (LXRα): “—” indicates no significant effect; conditions: for LXRα transactivation activity, % of T0901317: co-treated with LXR agonist T0901317 (0.5 μM); for LXRα transactivation activity, % of T0901317 / LXRα transactivation activity: 48 hours; for Antagonistic effect (LXRα), ↓ percentage: against LXR agonist (T0901317); for LXRα transactivation activity: sample alone at 1, 5, and 10 μM, p>0.05 vs vehicle; for Enhancing effect (LXRα): sample alone, enhancing percentage relative to positive control
T1 construct: expressed in transfected cells; host or cells: CHO-K1 (Chinese hamster ovary), transient transfection with pBKCMV GAL4-hLXRα
T1 sequence (Q13133 209-447 limits assumed): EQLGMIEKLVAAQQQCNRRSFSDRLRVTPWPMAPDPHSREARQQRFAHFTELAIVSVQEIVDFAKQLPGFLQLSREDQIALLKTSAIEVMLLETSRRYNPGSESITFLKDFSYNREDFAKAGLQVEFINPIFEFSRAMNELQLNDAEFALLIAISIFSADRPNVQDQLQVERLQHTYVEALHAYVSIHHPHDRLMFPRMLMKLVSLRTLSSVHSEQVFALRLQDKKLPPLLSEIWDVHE
Text: (§1) For the evaluation of LXR transactivation activity, the embodiments of the present invention utilize transient transfection and the vectors used are: (1) pBKCMV GAL4-hLXRα and pBKCMV GAL4-hLXRβ; (2) pBKCMV (UAS)4-alkaline phosphatase, wherein pBKCMV GAL4-hLXRα and pBKCMV GAL4-hLXRβ are pBKCMV vectors having chimeric receptor of GAL4-hLXRα ligand binding doman (LBD) and GAL4-hLXRβ LBD, while pBKCMV (UAS)4-alkaline phosphatase is the pBKCMV vector having the reporter gene of (UAS)4 alkaline phosphatase (ALP). UAS indicates upstream activation sequence. All vectors were co-transfected into Chinese hamster ovary cell (CHO-K1, from Bioresource Collection and Research Center of Food Industry Research and Development Institute, BCRC: 6006).
(§2) Transient transfection of the embodiments of the present invention was performed using Lipofectamin 2000 (Invitrogen). Firstly, after CHO-K1 cells were fully grown, cells were dis-attached by trpsin-EDTA solution and were eluted using 10% CSF-Ham's F-12, wherein CSF represents the FBS pretreated by charcoal (Dextran coated, Sigma, C6231). The cell suspension was diluted to 2.5×10^5 cells/mL, planted onto 96-well plate (100 μL/well), and incubated for 20 to 24 hours at 37° C. with 5% CO2.
(§3) Detailed steps for transfection are as follow: Lipofectamine 2000 was diluted in PS tubes by serum-free OPTI-MEM®I (GIBCO, 31985) for 5 minutes at room temperature; the vector DNA was diluted by a small amount of serum-free OPTI-MEM®I; the vectors in Table 2 were mixed with Lipofectamine 2000 with specific ratio (GAL4-hLXRα:(UAS)4-ALP=4:1; GAL4-hLXRβ:(UAS)4-ALP=4:1) and reacted for 20 minutes at room temperature. During the reaction, the cells were washed by serum-free Ham's F-12 medium (100 μL/well) twice to allow the formation of DNA-liposome complex; the vectors were then added to the above washed cells for transfection to take place at 37° C. and 5% CO2. Solution for transfection was removed after the transient transfection was completed.
Cells after transient transfection in Example 1 and removing the transfection solution were added to fucoxanthin and fucoxanthinol diluted with 10% TCM-Ham's F-12, LXR agonist T0901317, or none, to serve as experimental group, positive control, or vehicle, respectively. The ALP activities of all groups were analysis after incubation for 48 hours at 37° C. with 5% CO2.
(§4) The ALP activity analysis was performed by reacting the culture medium (20 μL/well) and reactant (100 mM pNPP:H2O:2X SEAP assay buffer=1:9:10, 200 μL/well) in a new 96-well plate for 15 minutes at 37° C. The absorbance at 405 nm was measured using microspectrometer.

hLXRβ = target: T2, hLXRβ (Homo sapiens, UniProt P55055); test: LXRβ transactivation activity, GAL4-hLXRβ LBD / (UAS)4-alkaline phosphatase reporter, transient transfection in CHO-K1 cells; assay type: cell-based; conditions: for LXRβ transactivation activity, % of GW3965: co-treated with LXR agonist GW3965 (0.5 μM); for LXRβ transactivation activity, % of GW3965 / LXRβ transactivation activity, % of the positive control GW3965: 48 hours; for Enhancing effect (LXRβ), ↑ percentage: sample alone, relative to positive control; for Antagonistic effect (LXRβ), ↓ percentage: against LXR agonist (GW3965)
T2 construct: expressed in transfected cells; host or cells: CHO-K1 (Chinese hamster ovary), transient transfection with pBKCMV GAL4-hLXRβ
T2 sequence (P55055 222-460 limits assumed): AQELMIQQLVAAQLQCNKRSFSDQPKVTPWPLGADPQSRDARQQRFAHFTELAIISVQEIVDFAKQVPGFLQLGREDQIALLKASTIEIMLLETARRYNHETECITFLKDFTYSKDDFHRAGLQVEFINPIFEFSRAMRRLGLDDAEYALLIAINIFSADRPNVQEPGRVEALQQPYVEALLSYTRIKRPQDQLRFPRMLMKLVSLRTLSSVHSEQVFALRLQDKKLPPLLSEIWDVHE
Text: as §1, §2, §3, §4
Cells after the abovementioned transient transfection and removing the transfection solution were added to fucoxanthin and fucoxanthinol diluted with 10% TCM-Ham's F-12, LXR agonist GW3965 (3-[3-[[[2-Chloro-3-trifluoromethyl)-phenyl]methyl](2,2-diphenyl-ethyl)amino]-propoxy]benzeneacetic acid), or none, to serve as experimental group, positive control, or vehicle, respectively. The ALP activities of all groups were analysis after incubation for 48 hours at 37° C. with 5% CO2. Same method for ALP analysis applied as describe in Example 2.

Molecule: C\C(C=C=C1C(C)(C)C[C@H](O)C[C@@]1(C)O)=C/C=C/C(C)=C/C=C/C=C(C)/C=C/C=C(\C)C(=O)C[C@@]12O[C@]1(C)C[C@@H](O)CC2(C)C [fucoxanthinol]
- LXRα transactivation activity, % of T0901317 (hLXRα; 5 μM): 48%
- Antagonistic effect (LXRα), ↓ percentage (hLXRα; 10 μM): ↓80%
- LXRα transactivation activity, % of T0901317 (hLXRα; 10 μM): 20%
- LXRα transactivation activity (hLXRα): no significant LXRα transactivation activities
- Enhancing effect (LXRα) (hLXRα): —
- LXRβ transactivation activity, % of GW3965 (hLXRβ; 1 μM): 79%
- Enhancing effect (LXRβ), ↑ percentage (hLXRβ; 1 μM): ↑3%
- LXRβ transactivation activity, % of GW3965 (hLXRβ; 5 μM): 62%
- Antagonistic effect (LXRβ), ↓ percentage (hLXRβ; 10 μM): ↓64%
- LXRβ transactivation activity, % of GW3965 (hLXRβ; 10 μM): 36%
- LXRβ transactivation activity, % of the positive control GW3965 (hLXRβ; sample alone at 1 μM): approximately 3%
- LXRβ transactivation activity, % of the positive control GW3965 (hLXRβ; sample alone at 5 μM): approximately 2%

Molecule: fucoxanthin
- LXRα transactivation activity, % of T0901317 (hLXRα; 5 μM): 76%
- Antagonistic effect (LXRα), ↓ percentage (hLXRα; 10 μM): ↓59%
- LXRα transactivation activity, % of T0901317 (hLXRα; 10 μM): 41%
- LXRα transactivation activity (hLXRα): no significant LXRα transactivation activities
- Enhancing effect (LXRα) (hLXRα): —
- LXRβ transactivation activity, % of GW3965 (hLXRβ; 5 μM): 69%
- Antagonistic effect (LXRβ), ↓ percentage (hLXRβ; 10 μM): ↓49%
- LXRβ transactivation activity, % of GW3965 (hLXRβ; 10 μM): 51%
- Enhancing effect (LXRβ), ↑ percentage (hLXRβ; 10 μM): ↑2%
- LXRβ transactivation activity, % of the positive control GW3965 (hLXRβ; sample alone at 10 μM): approximately 2%
